The NIST ThermoML archive (doi:10.1021/je050010l)
± gives the expanded uncertainty stated by the source.

Legend:
[1] = 100.8 kPa, Liquid; for viscosity: Capillary tube (Ostwald / Ubbelohde) method
[2] = refractive index (Na D-line) (dimensionless); conditions: 101.33 kPa, Liquid, Standard Abbe refractometry
[3] = xn = mol fraction of the nth substance listed; conditions: 100.8 kPa, Liquid; for viscosity: Capillary tube (Ostwald / Ubbelohde) method
[4] = refractive index (Na D-line) (dimensionless); xn = mol fraction of the nth substance listed; conditions: 100.8 kPa, Liquid, Standard Abbe refractometry

| Compound | mass density ([1]; 288.15 K) [kg/m3] | viscosity ([1]; 288.15 K) [mPa·s] | mass density ([1]; 298.15 K) [kg/m3] | viscosity ([1]; 298.15 K) [mPa·s] | mass density ([1]; 308.15 K) [kg/m3] | viscosity ([1]; 308.15 K) [mPa·s] | refractive index ([2]; 288.15 K) | refractive index ([2]; 298.15 K) | refractive index ([2]; 308.15 K) | viscosity ([3]; 288.15 K, x1 = 1) [mPa·s] | mass density ([3]; 288.15 K, x1 = 1) [kg/m3] | viscosity ([3]; 298.15 K, x1 = 1) [mPa·s] | mass density ([3]; 298.15 K, x1 = 1) [kg/m3] | viscosity ([3]; 308.15 K, x1 = 1) [mPa·s] | mass density ([3]; 308.15 K, x1 = 1) [kg/m3] | refractive index ([4]; 288.15 K, x1 = 1) | refractive index ([4]; 298.15 K, x1 = 1) | refractive index ([4]; 308.15 K, x1 = 1) | also measured |
| --- | --- | --- | --- | --- | --- | --- | --- | --- | --- | --- | --- | --- | --- | --- | --- | --- | --- | --- | --- |
| CC(C)CC(C)(C)C [2,2,4-trimethylpentane] | 695.95 ± 0.31 | 0.537 ± 0.005 | 687.74 ± 0.31 | 0.48 ± 0.004 | 679.41 ± 0.32 | 0.432 ± 0.004 | 1.39404 ± 0.00031 | 1.389 ± 0.00031 | 1.38395 ± 0.00031 | – | – | – | – | – | – | – | – | – | – |
| CC(C)=O [acetone] | 796.87 ± 0.22 | 0.334 ± 0.003 | 785.47 ± 0.23 | 0.302 ± 0.003 | 773.91 ± 0.24 | 0.274 ± 0.003 | 1.36152 ± 0.00031 | 1.35605 ± 0.00031 | 1.35057 ± 0.00031 | – | – | – | – | – | – | – | – | – | – |
| CC(C)=O [acetone] + CC(C)CC(C)(C)C | – | – | – | – | – | – | – | – | – | 0.334 ± 0.003 | 796.87 ± 0.22 | 0.302 ± 0.003 | 785.47 ± 0.23 | 0.274 ± 0.003 | 773.91 ± 0.24 | 1.36152 ± 0.00031 | 1.35605 ± 0.00031 | 1.35057 ± 0.00031 | – |
| CCO [ethanol] | 793.74 ± 0.23 | 1.309 ± 0.011 | 785.17 ± 0.23 | 1.084 ± 0.009 | 776.49 ± 0.24 | 0.905 ± 0.008 | 1.36342 ± 0.00031 | 1.35924 ± 0.00031 | 1.35502 ± 0.00031 | – | – | – | – | – | – | – | – | – | – |
| CCO [ethanol] + CC(C)=O | – | – | – | – | – | – | – | – | – | – | – | – | – | – | – | – | – | – | viscosity ([3]; 288.15 K, x2 = 0): 1.309 ± 0.011 mPa·s; mass density ([3]; 288.15 K, x2 = 0): 793.74 ± 0.23 kg/m3; viscosity ([3]; 298.15 K, x2 = 0): 1.084 ± 0.009 mPa·s; mass density ([3]; 298.15 K, x2 = 0): 785.17 ± 0.23 kg/m3; viscosity ([3]; 308.15 K, x2 = 0): 0.905 ± 0.008 mPa·s; mass density ([3]; 308.15 K, x2 = 0): 776.49 ± 0.24 kg/m3; refractive index ([4]; 288.15 K, x2 = 0): 1.36342 ± 0.00031; refractive index ([4]; 298.15 K, x2 = 0): 1.35924 ± 0.00031; refractive index ([4]; 308.15 K, x2 = 0): 1.35502 ± 0.00031 |
| CCO [ethanol] + CC(C)CC(C)(C)C | – | – | – | – | – | – | – | – | – | 1.309 ± 0.011 | 793.74 ± 0.23 | 1.084 ± 0.009 | 785.17 ± 0.23 | 0.905 ± 0.008 | 776.49 ± 0.24 | 1.36342 ± 0.00031 | 1.35924 ± 0.00031 | 1.35502 ± 0.00031 | – |
